From PMC3741113, “De-Novo Design of Antimicrobial Peptides for Plant Protection” (PLoS ONE, 2013)
Where “and” joins values, the source holds several entries; their conditions need not be identical. Equal values may be shown once. Read-outs that look alike come from different tables or passages of the source. Ends that are not written are not given here.

What was measured:
[1] = test system: Clavibacter michiganensis ssp. michiganensis; conditions: LB-medium, 27°C
[2] = test system: Pseudomonas corrugata; conditions: LB-medium, 27°C
[3] = test system: Pectobacterium carotovorum ssp. carotovorum; conditions: LB-medium, 27°C
[4] = test system: Alternaria alternata; conditions: 2% malt extract medium, 1.5–2×10^3 spores/ml, room temperature, 3d, OD590 nm; lowest concentration with no visible growth; at least two independent replicates
[5] = test system: Pseudomonas syringae pv. tomato; conditions: LB-medium, 27°C
[6] = test system: Cladosporium herbarum; conditions: 2% malt extract medium, 1.5–2×10^3 spores/ml, room temperature, 3d, visual screening; lowest concentration with no visible growth; at least two independent replicates
[7] = test system: Pseudomonas syringae pv. syringae; conditions: LB-medium, 27°C
[8] = test system: Botrytis cinerea; conditions: 2% malt extract medium, 1.5–2×10^3 spores/ml, room temperature, 3d, visual screening; lowest concentration with no visible growth; at least two independent replicates
[9] = test system: Xanthomonas vesicatoria; conditions: LB-medium, 27°C
[10] = test system: tested plant pathogens; experiment: Microdilution assay, activity summarised over several tested plant pathogens; format: cell-based; conditions: statement over some / the majority of the tested plant pathogens or bacteria
Protocol: In-vitro inhibition assays were performed in sterile flat-bottom 96-well polypropylene-plates (Greiner bio-one, Frickenhausen, Germany). 10 µl (antibacterial assay) or 20 µl (antifungal assay) of each concentration were loaded per well. Fresh bacterial colonies were transferred into LB-medium, grown to an OD600 nm of 0.08–0.1 and diluted 1∶100 with medium. 90 µl of this suspension containing about 10^5 CFU/ml of bacteria were added to each well resulting in final peptide concentrations from 0 to 100 µg/ml. After incubation at 27°C for 1–2d bacterial growth was analyzed by measuring the OD590 nm using a Tecan Genios microplate reader (Crailsheim, Germany).
Spores of plant pathogenic fungi were collected by washing sporulating cultures with water. Spore concentration was determined by haematocytometer and adjusted to 1.5–2×10^3 spores/ml in 2% malt extract medium. 80 µl of fungal spores were added per well resulting in final peptide concentrations from 0 to 100 µg/ml. After incubation at room temperature for 3d on a rotary shaker (300 rpm), fungal growth was determined by measuring the OD590 nm (Alternaria sp.) or by visual screening of the plates (Botrytis sp., Cladosporium sp.). The lowest peptide concentration, where no visible microbial growth could be detected, was determined for each organism-peptide combination and referred to as the minimal inhibitory concentration (MIC). At least two independent replicates were performed.

[11] = test system: Arabidopsis mesophyll protoplasts; experiment: Phytotoxicity on plant protoplasts; format: cell-based; conditions: 1 h incubation, light microscope
Protocol: Phytotoxicity was measured on Arabidopsis mesophyll protoplasts prepared from leaves as described in [80]. 80 µl protoplast suspension containing about 5000 protoplasts were incubated with 20 µl peptide solution. Final peptide concentrations were 0, 10, 100 and 200 µg/ml. The phytotoxic effect of antimicrobial peptides was observed after 1 h with a light microscope. Hints to cell death are loss of spherical shape, chloroplast release and/or agglomeration of protoplasts.

[12] = test system: human erythrocytes; experiment: Hemolytic activity (hemoglobin release); format: cell-based; conditions: 45 min, 37°C
Protocol: The hemolytic activity of the peptides was evaluated by determining hemoglobin release of suspensions of fresh human erythrocytes at 405 nm. Human red blood cells (Deutscher Blutspendedienst, München, Germany) were centrifuged and washed three times with Tris-buffer (10 mM Tris, 150 mM NaCl, pH 7.4). 80 µl of cells (1.5×10^9 cells/ml) were added to 20 µl of the peptide solution in 96-well plates and incubated for 45 min at 37°C. Final peptide concentrations were 0, 20, 50, 100 and 200 µg/ml. After centrifugation (1,500 g, 5 min, 20°C) 30 µl aliquots of the supernatant were transferred to 96-well plates containing 100 µl of water and released hemoglobin was determined using a microplate reader (OD405 nm). 100% hemolysis was determined with 2% SDS.

[13] = about 10^5 CFU/ml, 1–2d, OD590 nm, at least two independent replicates

| Substance | MIC [1, 13] [µg/mL] | MIC [2, 13] [µg/mL] | MIC [3, 13] [µg/mL] | MIC [4] [µg/mL] | MIC [5, 13] [µg/mL] | MIC [6] [µg/mL] | MIC [7, 13] [µg/mL] | MIC [8] [µg/mL] | MIC [9, 13] [µg/mL] | active concentrations (MIC) [10] | phytotoxicity to plant protoplasts (in words) [11] | MIC ([1]; Table 4, incubation period 2d) [µg/mL] | MIC ([2]; Table 4, incubation period 2d) [µg/mL] | MIC ([3]; Table 4, incubation period 1d) [µg/mL] | MIC ([5]; Table 4, incubation period 1d) [µg/mL] | Hemolytic activity: peptide concentration leading to 25% hemoglobin release from human blood cells ([12]; Table 4, highest concentration tested 200 µg/ml) | MIC ([7]; Table 4, incubation period 1d) [µg/mL] | MIC ([9]; Table 4, incubation period 2d) [µg/mL] | Hemolytic activity: peptide concentration leading to 25% hemoglobin release from human blood cells ([12]; Tris-buffer pH 7.4, 0, 20, 50, 100, 200 µg/ml, OD405 nm, 100% = 2% SDS, >200 = slight hemolytic activity at 200 µg/ml below threshold) [µg/mL] |
| --- | --- | --- | --- | --- | --- | --- | --- | --- | --- | --- | --- | --- | --- | --- | --- | --- | --- | --- | --- |
| KRKLTLVFGVMAGVIGTKKR-NH2 [SP14] | 20 | >40 | >40 | >100 | 40 | 100 | >40 | >100 | >40 | – | – | – | – | – | – | – | – | – | – |
| RKKRLKLLKRLV-NH2 [SP1] | – | – | – | >100 | – | 10 | – | >100 | – | 1 to 5 µg/mL and 1 to 2 µg/mL | – | – | – | – | – | – | – | – | – |
| KRRLIARILRLAARALVKKR-NH2 [SP13] | – | – | – | >100 | – | 20 | – | >100 | – | – | – | – | – | – | – | – | – | – | – |
| KRKLIFLAAFLAALALFKKR-NH2 [SP15] | 2.5 | >40 | >40 | >100 | 40 | 40 | >40 | >100 | 20 | – | highly ph ytotoxic | – | – | – | – | – | – | – | – |
| LRFLKKILKHLF-NH2 [SP10] | – | – | – | >100 | – | 10 | – | >100 | – | – | – | – | – | – | – | – | – | – | – |
| KKKAARALKRAL-NH2 [SP4] | 40 | >40 | >40 | >100 | 10 | 40 | >40 | >100 | >40 | – | – | – | – | – | – | – | – | – | – |
| RKKRLKLLKR LV-NH2 [SP1-D] | 40 | 20 | > 40 | 20 | 5 | 20 | 5 | > 40 | 40 | – | – | – | – | – | – | – | – | – | – |
| LRKLKKILKKLF-NH2 [SP10-10] | – | – | – | – | – | – | – | – | – | – | – | 0.25 | 0.25 | 2.5 | 0.5 | – (no value indicates none detectable hemolytic activity up to the highest concentration tested) | 0.25 | 0.1 | – |
| KRKKLLKRLI-NH2 [SP1-16] | – | – | – | – | – | – | – | – | – | – | – | >10 | 0.5 | >10 | 1.0 | – | 0.1 | 10 | – |
| KRRLAAFRAFRGALKSVLKK-NH2 [SP16] | 5 | 2.5 | >40 | >100 | 5 | 20 | 5 | >100 | 5 | – | – | – | – | – | – | – | – | – | – |
| RKKKFKFFKRLF-NH2 [SP1-12] | – | – | – | – | – | – | – | – | – | – | – | 0.5 | 0.25 | >10 | >10 | – | 0.1 | 0.5 | – |
| RKKRLRVVRRLV-NH2 [SP1-5] | – | – | – | – | – | – | – | – | – | – | – | >10 | 5.0 | >10 | 1.0 | – | >10 | >10 | – |
| RKRFARFAKRAV-NH2 [SP3] | 20 | >40 | >40 | >100 | 5 | 40 | >40 | >100 | >40 | – | – | – | – | – | – | – | – | – | – |
| LRALAKALKHKL-NH2 [SP11] | >40 | 10 | >40 | >100 | 5 | 20 | >40 | >100 | >40 | – | – | – | – | – | – | – | – | – | – |
| LLKALKKLLKKLL-NH2 [SP9] | 10 | >40 | >40 | >100 | 10 | 40 | 10 | >100 | 5 | – | – | – | – | – | – | – | – | – | – |
| RKKKAKIIKKII-NH2 [SP1-10] | – | – | – | – | – | – | – | – | – | – | – | >10 | 10 | >10 | >10 | – | 1.0 | >10 | – |
| RKKKIKIIKKII-NH2 [SP1-9] | – | – | – | – | – | – | – | – | – | – | – | 2.5 | 5.0 | >10 | 5.0 | – | 0.5 | 2.5 | – |
| KRRLIFRILKLFFRFLVKKR-NH2 [SP13-4] | – | – | – | – | – | – | – | – | – | – | – | 1.0 | 5.0 | >10 | >10 | – | 10 | 2.5 | – |
| RKRAARLLKRLV-NH2 [SP2] | 2 | 5 | >40 | >100 | 2 | 20 | 2 | >100 | 2 | 1 to 5 µg/mL and 1 to 2 µg/mL | – | – | – | – | – | – | – | – | – |
| LRKAKKIAKKLF-NH2 [SP10-11] | – | – | – | – | – | – | – | – | – | – | – | 5.0 | 0.5 | >10 | 0.5 | – | 0.1 | 0.5 | – |
| KRRLALFRLFRLALKLVLKK-NH2 [SP13-11] | – | – | – | – | – | – | – | – | – | – | – | 2.5 | >10 | >10 | 2.5 | – | >10 | 2.5 | – |
| KRRLILRILRLAIRILVKKR-NH2 [SP13-3] | – | – | – | – | – | – | – | – | – | – | – | 2.5 | >10 | >10 | 10 | – | >10 | 2.5 | – |
| KRRKAIKILKLIAKLIRKKR-NH2 [SP13-8] | – | – | – | – | – | – | – | – | – | – | – | 0.1 | 0.25 | >10 | 10 | – | >10 | 0.1 | – |
| KRRLFLFRLFRLFLRLFLKK-NH2 [SP13-12] | – | – | – | – | – | – | – | – | – | – | – | 2.5 | 10 | >10 | 5.0 | – | >10 | 2.5 | – |
| LLIKFLKRFIKH-NH2 [SP7-D] | 5 | 5 | 40 | 5 | – | 5 | – | 20 | 10 | – | – | – | – | – | – | – | – | – | – |
| LKALRKALKHLA-NH2 [SP12] | >40 | >40 | >40 | >100 | 2.5 | 20 | 10 | >100 | 20 | – | – | – | – | – | – | – | – | – | >200 |
